Measured values: a compilation of properties of binary mixtures (doi:10.1016/j.fluid.2020.112621)

Test: xn = mol fraction of the nth substance listed
Settings: 101 kPa

CCCCC(=O)[O-].CC[NH+](CC)CCO + CCCC[n+]1ccn(C)c1.COP(=O)([O-])OC
viscosity (278.15 K, x1 = 0.1018): 2088 mPa·s
viscosity (278.15 K, x1 = 0.1952): 1185.7 mPa·s
viscosity (278.15 K, x1 = 0.3029): 676 mPa·s
viscosity (278.15 K, x1 = 0.4003): 440 mPa·s
viscosity (278.15 K, x1 = 0.4973): 318.2 mPa·s
viscosity (278.15 K, x1 = 0.5989): 250.8 mPa·s
viscosity (278.15 K, x1 = 0.7978): 190.6 mPa·s
viscosity (278.15 K, x1 = 0.8868): 171.4 mPa·s
viscosity (278.15 K, x1 = 1): 156.6 mPa·s
viscosity (283.15 K, x1 = 0.1018): 1327.5 mPa·s
viscosity (283.15 K, x1 = 0.1952): 786 mPa·s
viscosity (283.15 K, x1 = 0.3029): 464 mPa·s
viscosity (283.15 K, x1 = 0.4003): 309 mPa·s
viscosity (283.15 K, x1 = 0.5989): 180.3 mPa·s
viscosity (283.15 K, x1 = 0.6984): 156.2 mPa·s
viscosity (283.15 K, x1 = 0.7978): 137.6 mPa·s
viscosity (283.15 K, x1 = 0.8868): 123.9 mPa·s
viscosity (283.15 K, x1 = 1): 113.1 mPa·s
viscosity (288.15 K, x1 = 0.1952): 536 mPa·s
viscosity (288.15 K, x1 = 0.3029): 327.1 mPa·s
viscosity (288.15 K, x1 = 0.4003): 222.5 mPa·s
viscosity (288.15 K, x1 = 0.4973): 165.5 mPa·s
viscosity (288.15 K, x1 = 0.5989): 132.6 mPa·s
viscosity (288.15 K, x1 = 0.6984): 115 mPa·s
viscosity (288.15 K, x1 = 0.7978): 101.5 mPa·s
viscosity (288.15 K, x1 = 0.8868): 91.4 mPa·s
viscosity (288.15 K, x1 = 1): 83.2 mPa·s
viscosity (293.15 K, x1 = 0.1952): 376 mPa·s
viscosity (293.15 K, x1 = 0.3029): 236.3 mPa·s
viscosity (293.15 K, x1 = 0.4003): 163.8 mPa·s
viscosity (293.15 K, x1 = 0.4973): 123.3 mPa·s
viscosity (293.15 K, x1 = 0.5989): 99.4 mPa·s
viscosity (293.15 K, x1 = 0.6984): 86.4 mPa·s
viscosity (293.15 K, x1 = 0.7978): 76.3 mPa·s
viscosity (293.15 K, x1 = 0.8868): 68.8 mPa·s
viscosity (293.15 K, x1 = 1): 62.4 mPa·s
viscosity (298.15 K, x1 = 0.1018): 416 mPa·s
viscosity (298.15 K, x1 = 0.3029): 174.8 mPa·s
viscosity (298.15 K, x1 = 0.4003): 123.2 mPa·s
viscosity (298.15 K, x1 = 0.4973): 93.8 mPa·s
viscosity (298.15 K, x1 = 0.6984): 66.1 mPa·s
viscosity (298.15 K, x1 = 0.8868): 52.75 mPa·s
viscosity (298.15 K, x1 = 1): 47.75 mPa·s
viscosity (303.15 K, x1 = 0.1018): 298.4 mPa·s
viscosity (303.15 K, x1 = 0.4003): 94.6 mPa·s
viscosity (303.15 K, x1 = 0.4973): 72.7 mPa·s
viscosity (303.15 K, x1 = 0.5989): 59.21 mPa·s
viscosity (303.15 K, x1 = 0.6984): 51.52 mPa·s
viscosity (303.15 K, x1 = 0.7978): 45.65 mPa·s
viscosity (303.15 K, x1 = 0.8868): 41.15 mPa·s
viscosity (308.15 K, x1 = 0.1018): 219.3 mPa·s
viscosity (308.15 K, x1 = 0.3029): 101.6 mPa·s
viscosity (308.15 K, x1 = 0.4003): 73.8 mPa·s
viscosity (308.15 K, x1 = 0.4973): 57.24 mPa·s
viscosity (308.15 K, x1 = 0.6984): 40.78 mPa·s
viscosity (308.15 K, x1 = 0.7978): 36.17 mPa·s
viscosity (308.15 K, x1 = 0.8868): 32.59 mPa·s
viscosity (308.15 K, x1 = 1): 29.31 mPa·s
viscosity (313.15 K, x1 = 0.1018): 164.7 mPa·s
viscosity (313.15 K, x1 = 0.1952): 115.4 mPa·s
viscosity (313.15 K, x1 = 0.4973): 45.77 mPa·s
viscosity (313.15 K, x1 = 0.6984): 32.76 mPa·s
viscosity (313.15 K, x1 = 0.7978): 29.07 mPa·s
viscosity (313.15 K, x1 = 1): 23.48 mPa·s
viscosity (318.15 K, x1 = 0.1018): 126 mPa·s
viscosity (318.15 K, x1 = 0.3029): 63.2 mPa·s
viscosity (318.15 K, x1 = 0.4973): 37.12 mPa·s
viscosity (318.15 K, x1 = 0.7978): 23.66 mPa·s
viscosity (318.15 K, x1 = 0.8868): 21.33 mPa·s
viscosity (318.15 K, x1 = 1): 19.07 mPa·s
viscosity (323.15 K, x1 = 0.1018): 98.1 mPa·s
viscosity (323.15 K, x1 = 0.1952): 71.4 mPa·s
viscosity (323.15 K, x1 = 0.3029): 50.96 mPa·s
viscosity (323.15 K, x1 = 0.4003): 38.46 mPa·s
viscosity (323.15 K, x1 = 0.4973): 30.5 mPa·s
viscosity (323.15 K, x1 = 0.5989): 25.23 mPa·s
viscosity (323.15 K, x1 = 0.6984): 21.99 mPa·s
viscosity (323.15 K, x1 = 0.8868): 17.59 mPa·s
viscosity (323.15 K, x1 = 1): 15.68 mPa·s
viscosity (328.15 K, x1 = 0.1018): 77.7 mPa·s
viscosity (328.15 K, x1 = 0.1952): 57.48 mPa·s
viscosity (328.15 K, x1 = 0.3029): 41.66 mPa·s
viscosity (328.15 K, x1 = 0.4003): 31.79 mPa·s
viscosity (328.15 K, x1 = 0.7978): 16.26 mPa·s
viscosity (328.15 K, x1 = 0.8868): 14.66 mPa·s
viscosity (328.15 K, x1 = 1): 13.03 mPa·s
viscosity (333.15 K, x1 = 0.1952): 46.87 mPa·s
viscosity (333.15 K, x1 = 0.4973): 21.3 mPa·s
viscosity (333.15 K, x1 = 0.5989): 17.73 mPa·s
viscosity (333.15 K, x1 = 0.6984): 15.45 mPa·s
viscosity (333.15 K, x1 = 0.7978): 13.7 mPa·s
viscosity (338.15 K, x1 = 0.1018): 50.75 mPa·s
viscosity (338.15 K, x1 = 0.3029): 28.83 mPa·s
viscosity (338.15 K, x1 = 0.4003): 22.42 mPa·s
viscosity (338.15 K, x1 = 0.6984): 13.14 mPa·s
viscosity (338.15 K, x1 = 0.7978): 11.64 mPa·s
viscosity (338.15 K, x1 = 0.8868): 10.49 mPa·s
viscosity (338.15 K, x1 = 1): 9.27 mPa·s
viscosity (343.15 K, x1 = 0.1018): 41.81 mPa·s
viscosity (343.15 K, x1 = 0.1952): 32.29 mPa·s
viscosity (343.15 K, x1 = 0.3029): 24.35 mPa·s
viscosity (343.15 K, x1 = 0.5989): 12.94 mPa·s
viscosity (343.15 K, x1 = 0.7978): 9.98 mPa·s
viscosity (343.15 K, x1 = 0.8868): 8.99 mPa·s
viscosity (343.15 K, x1 = 1): 7.91 mPa·s
viscosity (348.15 K, x1 = 0.1018): 34.84 mPa·s
viscosity (348.15 K, x1 = 0.1952): 27.23 mPa·s
viscosity (348.15 K, x1 = 0.3029): 20.77 mPa·s
viscosity (348.15 K, x1 = 0.4003): 16.43 mPa·s
viscosity (348.15 K, x1 = 0.4973): 13.36 mPa·s
viscosity (348.15 K, x1 = 0.6984): 9.74 mPa·s
viscosity (348.15 K, x1 = 0.7978): 8.63 mPa·s
viscosity (348.15 K, x1 = 0.8868): 7.76 mPa·s
viscosity (348.15 K, x1 = 1): 6.81 mPa·s
viscosity (353.15 K, x1 = 0.1018): 29.34 mPa·s
viscosity (353.15 K, x1 = 0.1952): 23.18 mPa·s
viscosity (353.15 K, x1 = 0.3029): 17.87 mPa·s
viscosity (353.15 K, x1 = 0.4003): 14.23 mPa·s
viscosity (353.15 K, x1 = 0.4973): 11.63 mPa·s
viscosity (353.15 K, x1 = 0.6984): 8.48 mPa·s
viscosity (353.15 K, x1 = 0.7978): 7.51 mPa·s
viscosity (353.15 K, x1 = 0.8868): 6.75 mPa·s
viscosity (353.15 K, x1 = 1): 5.9 mPa·s
viscosity (358.15 K, x1 = 0.1018): 24.95 mPa·s
viscosity (358.15 K, x1 = 0.1952): 19.9 mPa·s
viscosity (358.15 K, x1 = 0.3029): 15.5 mPa·s
viscosity (358.15 K, x1 = 0.4003): 12.43 mPa·s
viscosity (358.15 K, x1 = 0.4973): 10.19 mPa·s
viscosity (358.15 K, x1 = 0.5989): 8.56 mPa·s
viscosity (358.15 K, x1 = 0.6984): 7.44 mPa·s
viscosity (358.15 K, x1 = 0.7978): 6.58 mPa·s
viscosity (363.15 K, x1 = 0.1952): 17.23 mPa·s
viscosity (363.15 K, x1 = 0.3029): 13.54 mPa·s
viscosity (363.15 K, x1 = 0.4003): 10.92 mPa·s
viscosity (363.15 K, x1 = 0.4973): 8.99 mPa·s
viscosity (363.15 K, x1 = 0.5989): 7.56 mPa·s
viscosity (363.15 K, x1 = 0.7978): 5.81 mPa·s
viscosity (363.15 K, x1 = 0.8868): 5.2 mPa·s
viscosity (363.15 K, x1 = 1): 4.52 mPa·s
viscosity (368.15 K, x1 = 0.1018): 18.52 mPa·s
viscosity (368.15 K, x1 = 0.1952): 15.03 mPa·s
viscosity (368.15 K, x1 = 0.3029): 11.92 mPa·s
viscosity (368.15 K, x1 = 0.4003): 9.66 mPa·s
viscosity (368.15 K, x1 = 0.4973): 7.98 mPa·s
viscosity (368.15 K, x1 = 0.5989): 6.72 mPa·s
viscosity (368.15 K, x1 = 0.6984): 5.83 mPa·s
viscosity (368.15 K, x1 = 0.7978): 5.15 mPa·s
viscosity (368.15 K, x1 = 0.8868): 4.61 mPa·s
viscosity (368.15 K, x1 = 1): 3.99 mPa·s
viscosity (373.15 K, x1 = 0.1018): 16.15 mPa·s
viscosity (373.15 K, x1 = 0.1952): 13.21 mPa·s
viscosity (373.15 K, x1 = 0.3029): 10.55 mPa·s
viscosity (373.15 K, x1 = 0.4973): 7.12 mPa·s
viscosity (373.15 K, x1 = 0.5989): 6 mPa·s
viscosity (373.15 K, x1 = 0.6984): 5.2 mPa·s
viscosity (373.15 K, x1 = 0.7978): 4.59 mPa·s
viscosity (373.15 K, x1 = 0.8868): 4.1 mPa·s
